Experimental data taken from patent US7858786B2, “Pyrimidines and pyrazines useful as modulators of ion channels” (Vertex Pharmaceuticals Incoropated, priority 2005, dated 2010).

Molecular target: T1, NaV1.8 (Homo sapiens, UniProt Q9Y5Y9)
T1 sequence (Q9Y5Y9 whole entry, looked up): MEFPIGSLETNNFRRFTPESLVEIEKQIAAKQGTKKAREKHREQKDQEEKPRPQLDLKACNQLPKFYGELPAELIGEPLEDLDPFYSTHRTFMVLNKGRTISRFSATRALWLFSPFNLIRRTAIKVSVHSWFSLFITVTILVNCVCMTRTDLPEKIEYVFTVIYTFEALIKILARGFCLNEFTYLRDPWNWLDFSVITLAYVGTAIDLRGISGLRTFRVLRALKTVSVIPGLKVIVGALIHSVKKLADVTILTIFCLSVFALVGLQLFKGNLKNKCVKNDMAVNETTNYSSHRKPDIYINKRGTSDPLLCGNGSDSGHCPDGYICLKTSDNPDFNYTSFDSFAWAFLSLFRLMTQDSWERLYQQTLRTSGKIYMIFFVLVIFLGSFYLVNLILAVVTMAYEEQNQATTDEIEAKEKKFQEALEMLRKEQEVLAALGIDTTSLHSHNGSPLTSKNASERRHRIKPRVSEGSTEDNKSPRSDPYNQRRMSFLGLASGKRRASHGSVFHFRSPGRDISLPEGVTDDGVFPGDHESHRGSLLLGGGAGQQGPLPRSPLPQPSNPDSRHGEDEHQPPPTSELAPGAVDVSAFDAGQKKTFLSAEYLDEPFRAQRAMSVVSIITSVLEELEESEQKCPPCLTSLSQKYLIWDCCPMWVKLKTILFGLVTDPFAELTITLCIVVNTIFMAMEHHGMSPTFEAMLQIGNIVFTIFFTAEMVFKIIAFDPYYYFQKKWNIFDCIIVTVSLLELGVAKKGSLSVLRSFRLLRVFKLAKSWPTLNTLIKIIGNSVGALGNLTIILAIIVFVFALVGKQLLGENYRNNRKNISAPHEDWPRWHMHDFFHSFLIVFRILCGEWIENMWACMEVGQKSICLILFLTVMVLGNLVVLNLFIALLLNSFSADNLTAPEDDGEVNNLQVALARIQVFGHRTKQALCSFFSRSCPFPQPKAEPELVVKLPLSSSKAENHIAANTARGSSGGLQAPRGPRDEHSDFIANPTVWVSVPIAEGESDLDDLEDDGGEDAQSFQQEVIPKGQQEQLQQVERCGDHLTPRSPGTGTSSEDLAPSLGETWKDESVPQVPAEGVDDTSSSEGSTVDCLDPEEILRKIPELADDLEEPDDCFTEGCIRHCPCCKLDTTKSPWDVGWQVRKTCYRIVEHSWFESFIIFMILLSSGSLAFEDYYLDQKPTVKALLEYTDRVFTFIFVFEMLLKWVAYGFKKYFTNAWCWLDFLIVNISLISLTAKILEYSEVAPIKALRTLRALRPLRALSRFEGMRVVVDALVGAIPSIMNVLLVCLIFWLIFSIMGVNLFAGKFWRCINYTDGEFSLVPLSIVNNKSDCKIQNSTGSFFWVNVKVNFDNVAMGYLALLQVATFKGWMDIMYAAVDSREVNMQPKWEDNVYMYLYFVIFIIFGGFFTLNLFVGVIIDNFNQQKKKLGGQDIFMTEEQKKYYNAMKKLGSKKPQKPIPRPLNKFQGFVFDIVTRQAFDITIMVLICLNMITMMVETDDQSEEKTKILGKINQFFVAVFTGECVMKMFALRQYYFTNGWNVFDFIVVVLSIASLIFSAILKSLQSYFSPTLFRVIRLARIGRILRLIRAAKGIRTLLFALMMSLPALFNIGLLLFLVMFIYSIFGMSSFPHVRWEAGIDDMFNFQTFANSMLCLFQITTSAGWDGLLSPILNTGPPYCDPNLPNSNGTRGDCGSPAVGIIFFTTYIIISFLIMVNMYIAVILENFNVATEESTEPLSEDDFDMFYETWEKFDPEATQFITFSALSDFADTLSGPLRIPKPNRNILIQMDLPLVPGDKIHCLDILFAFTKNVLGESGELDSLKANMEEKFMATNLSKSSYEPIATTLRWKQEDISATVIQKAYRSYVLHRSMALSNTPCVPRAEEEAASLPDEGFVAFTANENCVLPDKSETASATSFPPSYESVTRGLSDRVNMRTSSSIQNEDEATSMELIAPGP
Assay: Activity against NaV 1.8 channel (NaV inhibition assay)
Type: cell-based
Settings: not given
Description: Compounds of the invention are useful as antagonists of voltage-gated sodium ion channels. Antagonist properties of test compounds were assessed as follows. Cells expressing the NaV of interest were placed into microtiter plates. After an incubation period, the cells were stained with fluorescent dyes sensitive to the transmembrane potential. The test compounds were added to the microtiter plate. The cells were stimulated with either a chemical or electrical means to evoke a NaV dependent membrane potential change from unblocked channels, which was detected and measured with trans-membrane potential-sensitive dyes. Antagonists were detected as a decreased membrane potential response to the stimulus. The optical membrane potential assay utilized voltage-sensitive FRET sensors described by Gonzalez and Tsien (See, Gonzalez, J. E. and R. Y. Tsien (1995) “Voltage sensing by fluorescence resonance energy transfer in single cells” Biophys J 69(4):1272-80, and Gonzalez, J. E. and R. Y. Tsien (1997) “Improved indicators of cell membrane potential that use fluorescence resonance energy transfer” Chem Biol 4(4):269-77) in combination with instrumentation for measuring fluorescence changes such as the Voltage/Ion Probe Reader (VIPRO®) (See, Gonzalez, J. E., K. Oades, et al. (1999) “Cell-based assays and instrumentation for screening ion-channel targets” Drug Discov Today 4(9):431-439).
24 hours before the assay on VIPR, CHO cells endogenously expressing a NaV1.2 type voltage-gated NaV are seeded in 96-well poly-lysine coated plates at 60,000 cells per well. Other subtypes are performed in an analogous mode in a cell line expressing the NaV of interest.
The following is an example of how NaV1.3 inhibition activity is measured using the optical membrane potential method #2. Other subtypes are performed in an analogous mode in a cell line expressing the NaV of interest.
HEK293 cells stably expressing NaV1.3 are plated into 96-well microtiter plates. After an appropriate incubation period, the cells are stained with the voltage sensitive dyes CC2-DMPE/DiSBAC2(3) as follows.
Patch clamp electrophysiology was used to assess the efficacy and selectivity of sodium channel blockers in dorsal root ganglion neurons. Rat neurons were isolated from the dorsal root ganglions and maintained in culture for 2 to 10 days in the presence of NGF (50 ng/ml) (culture media consisted of NeurobasalA supplemented with B27, glutamine and antibiotics). Small diameter neurons (nociceptors, 8-12 μm in diameter) have been visually identified and probed with fine tip glass electrodes connected to an amplifier (Axon Instruments). The “voltage clamp” mode has been used to assess the compound's IC50 holding the cells at −60 mV. In addition, the “current clamp” mode has been employed to test the efficacy of the compounds in blocking action potential generation in response to current injections. The results of these experiments have contributed to the definition of the efficacy profile of the compounds.
TTX-resistant sodium currents were recorded from DRG somata using the whole-cell variation of the patch clamp technique. Recordings were made at room temperature (˜22° C.) with thick walled borosilicate glass electrodes (WPI; resistance 3-4 MΩ) using an Axopatch 200B amplifier (Axon Instruments). After establishing the whole-cell configuration, approximately 15 minutes were allowed for the pipette solution to equilibrate within the cell before beginning recording. Currents were lowpass filtered between 2-5 kHz and digitally sampled at 10 kHz. Series resistance was compensated 60-70% and was monitored continuously throughout the experiment. The liquid junction potential (−7 mV) between the intracellular pipette solution and the external recording solution was not accounted for in the data analysis. Test solutions were applied to the cells with a gravity driven fast perfusion system (SF-77; Warner Instruments). […]
With `COCCOC(=O)NC1CCN(c2cncc(-c3ccccc3O)n2)CC1` [Compound 47, [1-[6-(2-hydroxyphenyl)pyrazin-2-yl]-4-piperidyl]aminoformic acid 2-methoxyethyl ester] the IC50 was > 15 µM.
With `COCCOC(=O)NC1CCN(c2cncc(-c3ccccc3F)n2)CC1` [Compound 9, [1-[6-(2-fluorophenyl)pyrazin-2-yl]-4-piperidyl]aminoformic acid 2-methoxyethyl ester] the IC50 was < 10 µM.
In the case of `CC(C)C[C@@H](O)C(=O)N1CCN(c2cc(-c3ccccc3C(F)F)ncn2)CC1` [Compound 49, 1-[4-[6-[2-(difluoromethyl)phenyl]pyrimidin-4-yl]piperazin-1-yl]-2-hydroxy-4-methyl-pentan-1-one], the IC50 is reported as > 15 µM.
`CC(C)COC(=O)N1CCN(c2nccc(-c3ccccc3C(F)F)n2)CC1` [Compound 24, 4-[4-[2-(difluoromethyl)phenyl]pyrimidin-2-yl]piperazine-1-carboxylic acid isobutyl ester] showed an IC50 of 10 to 15 µM.
In the case of `CC(C)COC(=O)NC1CCN(c2nccc(-c3ccccc3O)n2)CC1` [Compound 1, [1-[4-(2-hydroxyphenyl)pyrimidin-2-yl]-4-piperidyl]aminoformic acid isobutyl ester], the IC50 is reported as > 15 µM.
With `CC(C)COC(=O)NC1CCN(c2cncc(-c3ccccc3F)n2)CC1` [Compound 45, [1-[6-(2-fluorophenyl)pyrazin-2-yl]-4-piperidyl]aminoformic acid isobutyl ester] the IC50 was < 10 µM.
`CC(C)(C)OC(=O)N[C@@H]1CCN(c2cncc(-c3ccccc3C(F)F)n2)C1` [Compound 43, [1-[6-[2-(difluoromethyl)phenyl]pyrazin-2-yl]pyrrolidin-3-yl]aminoformic acid tert-butyl ester] gave an IC50 of 10 to 15 µM.
In the case of `CC(C)C(=O)N[C@@H]1CCN(c2cncc(-c3ccccc3C(F)F)n2)C1` [Compound 28, N-[1-[6-[2-(difluoromethyl)phenyl]pyrazin-2-yl]pyrrolidin-3-yl]-2-methyl-propanamide], the IC50 is reported as > 15 µM.
For `CC(C)COC(=O)N1CCN(c2ccnc(-c3ccccc3C(F)F)n2)CC1` [Compound 32, 4-[2-[2-(difluoromethyl)phenyl]pyrimidin-4-yl]piperazine-1-carboxylic acid isobutyl ester], the IC50 was > 15 µM.
In the case of `CC(C)(C)OC(=O)NC1CCN(c2cncc(-c3ccccc3F)n2)CC1` [Compound 3, [1-[6-(2-fluorophenyl)pyrazin-2-yl]-4-piperidyl]aminoformic acid tert-butyl ester], the IC50 is reported as < 10 µM.
For `CC(C)C[C@@H](O)C(=O)N1CCN(c2cc(-c3ccccc3F)ncn2)CC1` [Compound 44, 1-[4-[6-(2-fluorophenyl)pyrimidin-4-yl]piperazin-1-yl]-2-hydroxy-4-methyl-pentan-1-one], the IC50 was > 15 µM.
In the case of `CC(C)COC(=O)N1CCN(c2nccc(-c3ccccc3O)n2)CC1` [Compound 25, 4-[4-(2-hydroxyphenyl)pyrimidin-2-yl]piperazine-1-carboxylic acid isobutyl ester], the IC50 is reported as < 10 µM.
With `CC(C)C(=O)N[C@@H]1CCN(c2cncc(-c3ccccc3F)n2)C1` [Compound 7, N-[1-[6-(2-fluorophenyl)pyrazin-2-yl]pyrrolidin-3-yl]-2-methyl-propanamide] the IC50 was > 15 µM.
`CC(C)C[C@@H](O)C(=O)N1CCN(c2nccc(-c3ccccc3C(F)F)n2)CC1` [Compound 6, 1-[4-[4-[2-(difluoromethyl)phenyl]pyrimidin-2-yl]piperazin-1-yl]-2-hydroxy-4-methyl-pentan-1-one] showed an IC50 of 10 to 15 µM.
For `CC(C)COC(=O)NC1CCN(c2nccc(-c3ccccc3C(F)F)n2)CC1` [Compound 31, [1-[4-[2-(difluoromethyl)phenyl]pyrimidin-2-yl]-4-piperidyl]aminoformic acid isobutyl ester], the IC50 was < 10 µM.
With `CC(C)C[C@@H](O)C(=O)N1CCN(c2cc(-c3ccccc3O)ncn2)CC1` [Compound 26, 2-hydroxy-1-[4-[6-(2-hydroxyphenyl)pyrimidin-4-yl]piperazin-1-yl]-4-methyl-pentan-1-one] the IC50 was > 15 µM.
In the case of `CC(C)C(=O)N[C@@H]1CCN(c2cncc(-c3ccccc3O)n2)C1` [Compound 14, N-[1-[6-(2-hydroxyphenyl)pyrazin-2-yl]pyrrolidin-3-yl]-2-methyl-propanamide], the IC50 is reported as > 15 µM.

Molecular target: T1, NaV1.8
Assay: not given
Settings: read-out: TTX IC50; cited from earlier work
In the case of `NC1=N[C@H](O)[C@H]2[C@H]3O[C@]4(O)O[C@@H]([C@@H](O)[C@@]2(N1)[C@@H]4O)[C@]3(O)CO` [TTX, tetrodotoxin], the IC50 is given as > 50 µM.

System: neuropathic pain
Assay: not given
Settings: modest efficacy; cited from earlier work
In the case of `NCC1(CC(=O)O)CCCCC1` [Gabapentin], the “patients in which it works” value is listed as 60%.
